Source: ChEMBL document CHEMBL1201862, “PubChem BioAssay data set” (2004)
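Assay format: 96-well plates, 48-hour exposure. At the GI50, growth is halved.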 Calls of active or inactive are those of the source. Rule as the data show it: active = GI50 up to about 1.1 µM and inactive = higher.

Experiments:
Assay in all cases: NCI anticancer screen, dose series, 48 h
K562 = test system: K562
NCI-H226 = test system: NCI-H226
HT-29 = test system: HT-29
SK-OV-3 = test system: SK-OV-3
U-251 = test system: U-251
786-0 = test system: 786-0
HCT-15 = test system: HCT-15
NCI-H23 = test system: NCI-H23
EKVX = test system: EKVX
MOLT-4 = test system: MOLT-4
KM12 = test system: KM12
SNB-19 = test system: SNB-19
HOP-92 = test system: HOP-92
OVCAR-8 = test system: OVCAR-8
A498 = test system: A498
UO-31 = test system: UO-31
NCI-H522 = test system: NCI-H522
Hs-578T = test system: Hs-578T
MCF7 = test system: MCF7
MDA-MB-231 = test system: MDA-MB-231

| SMILES | GI50 (K562) | GI50 (NCI-H226) | GI50 (HT-29) | GI50 (SK-OV-3) | GI50 (U-251) | GI50 (786-0) | GI50 (HCT-15) | GI50 (NCI-H23) | GI50 (EKVX) | GI50 (MOLT-4) | GI50 (KM12) | GI50 (SNB-19) | GI50 (HOP-92) | GI50 (OVCAR-8) | GI50 (A498) | GI50 (UO-31) | GI50 (NCI-H522) | GI50 (Hs-578T) | GI50 (MCF7) | GI50 (MDA-MB-231) |
| --- | --- | --- | --- | --- | --- | --- | --- | --- | --- | --- | --- | --- | --- | --- | --- | --- | --- | --- | --- | --- |
| C=CCNC(=S)N/C=C1\C(=O)Oc2ccccc2C1=O | > 100 µM (inactive) | 28.9 µM (inactive) | > 100 µM (inactive) | 44.4 µM (inactive) | 59.8 µM (inactive) | 55 µM (inactive) | 60.5 µM | > 100 µM (inactive) | > 100 µM (inactive) | > 100 µM (inactive) | 87.5 µM (inactive) | 59.4 µM (inactive) | 30.5 µM (inactive) | 58.5 µM (inactive) | 56.8 µM (inactive) | 27.5 µM (inactive) | 65.6 µM (inactive) |  |  |  |
| CC(C)CN1CN(c2ccccc2)C2(CCN(CC(C)(c3ccc(F)cc3)C3OCCO3)CC2)C1=O (stereo not given) | 3.08 µM (inactive) | 11.1 µM (inactive) | 1.73 µM (inactive) | 3.89 µM (inactive) | 4.75 µM (inactive) | 3.12 µM (inactive) | 3.27 µM | 2.09 µM (inactive) | 6.01 µM (inactive) | 2.4 µM (inactive) | 3.72 µM (inactive) | 7.21 µM (inactive) |  | 10.1 µM (inactive) |  | 2.7 µM (inactive) | 3.96 µM (inactive) | 3.66 µM (inactive) | 4.11 µM (inactive) |  |
| O=S(=O)(O)c1c(/N=N/c2c(O)ccc3ccccc23)ccc2ccccc12 | > 100 µM (inactive) | 19.4 µM (inactive) | > 100 µM (inactive) | 79.8 µM (inactive) | > 100 µM (inactive) | > 100 µM (inactive) | > 100 µM | > 100 µM (inactive) | > 100 µM (inactive) | > 100 µM (inactive) | > 100 µM (inactive) | > 100 µM (inactive) | > 100 µM (inactive) | > 100 µM (inactive) | > 100 µM (inactive) | 76.7 µM (inactive) | 93.5 µM (inactive) | > 100 µM (inactive) |  | > 100 µM (inactive) |
| O=c1[nH]c(=O)n(C2OC(CO)C(O)C2O)cc1OCc1ccccc1 (stereo not given) | > 73.3 µM (inactive) | > 100 µM (inactive) | > 100 µM (inactive) | > 100 µM (inactive) | > 58.2 µM (inactive) | > 100 µM (inactive) | > 59 µM | > 100 µM (inactive) | > 100 µM (inactive) | > 100 µM (inactive) | > 100 µM (inactive) | > 100 µM (inactive) | > 100 µM (inactive) | > 77.6 µM (inactive) | > 100 µM (inactive) | > 100 µM (inactive) | > 100 µM (inactive) |  |  |  |
| Cc1c(Cl)cccc1NC(=O)C(=O)C1C(=O)CC(C)(C)CC1=O | > 100 µM (inactive) | > 100 µM (inactive) | > 100 µM (inactive) | > 100 µM (inactive) | > 100 µM (inactive) | > 100 µM (inactive) | > 100 µM | > 100 µM (inactive) | > 100 µM (inactive) | > 100 µM (inactive) | > 100 µM (inactive) | > 100 µM (inactive) | > 100 µM (inactive) | > 100 µM (inactive) | > 100 µM (inactive) | > 100 µM (inactive) | > 100 µM (inactive) |  |  |  |
| [N-]=[N+]=CC(=O)OC(CCl)CCl | > 100 µM (inactive) | > 100 µM (inactive) | > 100 µM (inactive) | > 100 µM (inactive) | > 100 µM (inactive) | > 100 µM (inactive) | > 100 µM | > 100 µM (inactive) | > 100 µM (inactive) | > 100 µM (inactive) | > 100 µM (inactive) | > 100 µM (inactive) | > 100 µM (inactive) |  | > 100 µM (inactive) | > 100 µM (inactive) | > 100 µM (inactive) |  | > 100 µM (inactive) | > 100 µM (inactive) |
| NC(CCCNCc1ccccc1O)C(=O)O (stereo not given) | > 100 µM (inactive) | > 100 µM (inactive) | > 100 µM (inactive) | > 100 µM (inactive) |  | > 100 µM (inactive) | > 100 µM | > 100 µM (inactive) | > 100 µM (inactive) | > 100 µM (inactive) | > 100 µM (inactive) | > 100 µM (inactive) | > 100 µM (inactive) | > 100 µM (inactive) | > 100 µM (inactive) | > 100 µM (inactive) | > 100 µM (inactive) |  |  |  |
| COc1ccc(C2=Nc3ccccc3N=C(SC)C2)cc1 | 20.8 µM (inactive) | > 100 µM (inactive) | 38.5 µM (inactive) | > 100 µM (inactive) | 32.2 µM (inactive) | 38.6 µM (inactive) | 33.7 µM | 32.8 µM (inactive) | 41 µM (inactive) | 25.5 µM (inactive) | 27.5 µM (inactive) | > 100 µM (inactive) | 15.6 µM (inactive) | 59.3 µM (inactive) | > 100 µM (inactive) | 47.3 µM (inactive) | 22.9 µM (inactive) |  |  |  |
| COc1cc2c(cc1OC)CC(=O)Nc1cc(OC)c(OC)cc1CC2 | 24 µM (inactive) | 79.1 µM (inactive) | 37 µM (inactive) | 38.6 µM (inactive) | 54.7 µM (inactive) | 49.2 µM (inactive) | 55 µM | > 82.6 µM (inactive) | > 100 µM (inactive) | 52.5 µM (inactive) | 43.6 µM (inactive) | 99.8 µM (inactive) | > 80.9 µM (inactive) | 53.8 µM (inactive) | 44.5 µM (inactive) | 61.9 µM (inactive) | 17.3 µM (inactive) |  |  |  |
| Cc1cccc(-c2nc(-c3cnccn3)n(Cc3ccccc3)n2)c1 | > 100 µM (inactive) |  | > 100 µM (inactive) | 65.6 µM (inactive) | > 100 µM (inactive) | 52.7 µM (inactive) | > 100 µM | > 100 µM (inactive) |  | > 100 µM (inactive) | > 100 µM (inactive) | 95.1 µM (inactive) | 34 µM (inactive) | 99.1 µM (inactive) |  | > 100 µM (inactive) | > 100 µM (inactive) |  | > 100 µM (inactive) | > 100 µM (inactive) |
| O=C1Nc2ccccc2N/C1=C\C(=O)c1ccccc1O | > 100 µM (inactive) | > 100 µM (inactive) | > 100 µM (inactive) | > 100 µM (inactive) | > 100 µM (inactive) | > 100 µM (inactive) | > 100 µM | > 100 µM (inactive) | > 100 µM (inactive) | > 100 µM (inactive) | > 100 µM (inactive) | > 100 µM (inactive) | > 100 µM (inactive) | > 100 µM (inactive) | > 100 µM (inactive) | > 100 µM (inactive) | > 100 µM (inactive) |  |  |  |
| Brc1cccc(/C=N/C23CC4CC(CC(C4)C2)C3)c1 | > 100 µM (inactive) | > 100 µM (inactive) | > 100 µM (inactive) | > 100 µM (inactive) | > 100 µM (inactive) | > 100 µM (inactive) | > 100 µM | > 100 µM (inactive) | > 100 µM (inactive) | > 100 µM (inactive) | > 100 µM (inactive) | > 100 µM (inactive) | > 100 µM (inactive) | > 100 µM (inactive) | > 100 µM (inactive) | > 100 µM (inactive) | > 100 µM (inactive) |  |  |  |
| CCCC(=O)n1[nH]c(=O)n(-c2ccc(Cl)cc2)c1=O | > 100 µM (inactive) | > 100 µM (inactive) | > 100 µM (inactive) | > 100 µM (inactive) | > 100 µM (inactive) | > 100 µM (inactive) | > 100 µM | > 100 µM (inactive) | > 100 µM (inactive) | > 100 µM (inactive) | > 100 µM (inactive) | > 100 µM (inactive) |  | > 100 µM (inactive) |  | > 100 µM (inactive) |  | > 100 µM (inactive) | > 100 µM (inactive) | > 100 µM (inactive) |
| COc1ccc(O)cc1C(O)c1ccccc1 (stereo not given) | > 100 µM (inactive) | > 100 µM (inactive) | > 100 µM (inactive) | > 100 µM (inactive) | > 100 µM (inactive) | > 100 µM (inactive) | > 100 µM | > 100 µM (inactive) | > 100 µM (inactive) | > 100 µM (inactive) | > 100 µM (inactive) | > 100 µM (inactive) | > 100 µM (inactive) | > 100 µM (inactive) | > 100 µM (inactive) | > 100 µM (inactive) | > 100 µM (inactive) |  |  |  |
| O=c1c2cccc3cccc(c4oc5c6cccc7cccc(c(=O)c5c14)c76)c32 | > 10 µM (inactive) | 17 µM (inactive) | 13.8 µM (inactive) | 28.9 µM (inactive) | 12.7 µM (inactive) | 11.2 µM (inactive) | 11.4 µM | 13.2 µM (inactive) | 12.2 µM (inactive) | 12.5 µM (inactive) | 13.8 µM (inactive) | 11.6 µM (inactive) | 8.22 µM (inactive) | 11.1 µM (inactive) | > 100 µM (inactive) | 13.5 µM (inactive) | 5.4 µM (inactive) |  |  |  |
| O=C(C(=O)c1cc2ccccc2[nH]1)c1cc2ccccc2[nH]1 | > 332 µM (inactive) | > 347 µM (inactive) | > 347 µM (inactive) | > 347 µM (inactive) | > 347 µM (inactive) | > 284 µM (inactive) | 94.2 µM | > 255 µM (inactive) | > 347 µM (inactive) | 24 µM (inactive) | > 347 µM (inactive) | > 347 µM (inactive) | > 127 µM (inactive) | > 224 µM (inactive) | > 347 µM (inactive) | > 347 µM (inactive) | 13.8 µM (inactive) |  |  |  |
| COc1ccc(CN[C@H]2CCc3cc(OC)c(OC)c(OC)c3-c3ccc(SC)c(=O)cc32)c(OC)c1OC | 0.0346 µM (active) | 0.0237 µM (active) | 0.0205 µM (active) | 0.0293 µM (active) | 0.0194 µM (active) | 0.037 µM (active) | 0.0266 µM | 0.0219 µM (active) | 0.0237 µM (active) | 0.0361 µM (active) | 0.0308 µM (active) | 0.0658 µM (active) | 0.0681 µM (active) | 0.0277 µM (active) | 0.0296 µM (active) | 0.132 µM (active) | 0.0216 µM (active) |  |  |  |
